In patent publication US20240238217A1, “USE OF CLOFOCTOL FOR THE TREATMENT OF INFLAMMATION” (INSTITUT NATIONAL DE LA SANTÉ ET DE LA RECHERCHE MÉDICALE, priority 2021, published 2024):
Like-named read-outs stand apart in the source and are kept apart here.

Columns and labels:
[1] = system: PMA-differentiated THP-1 macrophages; test: LPS-induced cytokine expression in PMA-differentiated THP-1 macrophages (RT-qPCR and ELISA); format: cell-based, human; conditions: clofoctol 1 hour prior to LPS 100 ng/mL
Method: FIG. 4: Effects of clofoctol treatment on LPS-induced cytokine mRNA expression by PMA-differentiated THP-1 macrophages. a, b, c and d) mRNA expression of MCP1, TNFα, IL-6 and IL-1β were quantified by RT-qPCR. Data are expressed as a fold-increase over the mean gene expression level in solvent control wells. (mean+/−SD from 3 experiments in duplicate). Significant differences were determined using the one-way ANOVA corrected for Dunnett's multiple comparisons test (**p<0.01; ***p<0.001, ****p<0.0001). ELISA of MCP1, TNFα and IL-6 (e, f and g) from supernatant of THP-1 cells pre-treated or not with Clofoctol or Dexamethasone and stimulated with LPS during 24 h. Results are expressed as the concentration of cytokine in pg/mL. (mean from one experiment in duplicate).
THP-1 designates a spontaneously immortalized monocyte-like cell line, derived from the peripheral blood of a childhood case of acute monocytic leukemia. Cells were cultivated in RPMI with HEPES without Glutamine complemented with 2 mM Glutamine, 10% FBS and 1% Penicillin/streptomycin and incubated at 37° C.-5% CO2. THP1 cells were used from passage 7 until passage 14 and they were negative for mycoplasma contamination, which was assessed with MycoAlert™ Mycoplasma Detection Kit (Lonza-Basel, Switzerland). […] In THP1, The levels of human cytokines were measured after 24 h of stimulation in the collected supernatants with human CCL2/MCP-1, IL-6 and TNF-α Duoset ELISA (R&D systems, Minneapolis, MN) according to the manufacturer's protocols.
Total RNA was extracted with NucleoSpin® RNA kit (Macherey-Nagel, Hoerdt, Germany). […] Relative quantification of MCP1, TNF-α, IL-6 and IL-1β was performed using the gene coding glyceraldehyde 3-phosphate dehydrogenase (GAPDH). Relative mRNA levels (2-ΔΔCt) were determined by comparing (a) the PCR cycle thresholds (Ct) for the gene of interest and the house keeping gene GAPDH (ΔCt) and (b) ΔCt values for treated and control groups (ΔΔCt). Data are expressed as a fold-increase over the mean gene expression level in solvent control wells.

SARS-COV-2 [2] = format: in vivo, K18-hACE2 transgenic C57BL/6J mice
[3] = system: IAV H1N1 A/California/04/2009 (pdm09); test: IAV infection in mice: viral load, lung inflammation, pathology; format: in vivo, C57BL/6J mice; conditions: 50 mg/kg i.p.
SARS-CoV-2 [4] = test: In vitro antiviral activity (IC95) of clofoctol; format: cell-based
[5] = system: IAV H1N1 A/California/04/2009 (pdm09); test: Long-term sequela (fibrosis) imposed by IAV infection in mice; conditions: 50 mg/kg i.p. once a day for 4 days
MPI cells = test: LPS-induced cytokine production by alveolar macrophage MPI cells (ELISA); format: cell-based, C57BL/6J mouse; conditions: clofoctol added 30 minutes prior to LPS 10 ng/ml, 24 h, supernatant ELISA
Method: FIG. 3: Effects of clofoctol treatment on LPS-induced cytokine production by alveolar macrophages. ELISA of IL-1β, IL-12p40, TNFα, and MCP-1 from supernatant of MPI cells pre-treated or not with clofoctol and stimulated or not with LPS during 24 h. The percentage cell viability post treatment is indicated. Significant differences were determined using the two-way ANOVA corrected for Dunnett's multiple comparisons test (viability test) or one-way ANOVA corrected for Dunnett's multiple comparisons test (n=7-11) (**p<0.01; ***p<0.001, ****p<0.0001).
Max Plank Institute (MPI) cells are self-renewing and non-transformed cells originated from fetal liver of C57BL/6J mouse. MPI cells were used as a model of alveolar macrophages, due to their closer profile (Fejer et al., 2013). Cells were cultivated in RPMI Glutamax with 10% FBS, 1% Penicillin/streptomycin, and 30 ng/mL GM-CSF and incubated on 37° ° C.5% CO2. MPI cells were used from passage 6 until passage 30 and they were negative for mycoplasma contamination, which was assessed with MycoAlert™ Mycoplasma Detection Kit (Lonza-Basel, Switzerland). […] Cytokine production was measured from the supernatant of cells after 24 h of stimulation, accordingly to protocol's manufactures for IL-1β, IL-12p40, TNF-α, and MCP-1 (R&D Systems—Minneapolis, MN). […]

[6] = system: LPS-induced lung inflammation; test: LPS-induced lung inflammation in mice (RT-qPCR of lung transcripts); format: in vivo, C57BL/6J mice; conditions: male mice, 50 mg/kg i.p. 1 h before and 8 h after i.n. LPS 10 μg/mouse, 24 h
Method: FIG. 5: Effects of clofoctol treatment on LPS-induced lung inflammation. Male C57BL/6J mice were treated i.p. with clofoctol (50 mg/kg) or vehicle 1 h before and 8 h after i.n. inoculation of LPS (10 μg/mouse) or PBS. Animals were sacrificed 24 h after LPS inoculation. mRNA copy numbers of genes were quantified by RT-qPCR. Data are expressed as fold change over average gene expression in PBS-treated animals. Results are expressed as the mean±SD (n=6). Significant differences were determined using the Mann-Whitney U test (**p<0.01).
C57BL/6 mice were inoculated by the intra-nasal route with LPS (Escherichia coli 0111:B4) at 10 μg/mouse. Clofoctol was injected i.p. 1 h before and 8 h after LPS administration. Mice were sacrificed 24 hrs after LPS inoculation.

[7] = female mice, day 4 post-infection
[8] = female C57BL/6 mice, single i.p. dose 62.5 mg/kg

What does the source list for `CC(C)(C)CC(C)(C)c1ccc(O)c(Cc2ccc(Cl)cc2Cl)c1` [clofoctol, 2-[(2,4-dichlorophenyl)methyl]-4-(2,4,4-trimethylpentan-2-yl)phenol]?
expression of MCP1 and IL-6 genes ([1]; 5 hours, RT-qPCR): significantly reducing; MCP1 and IL-6 protein in supernatant ([1]; 24 hours, ELISA): significantly reducing; IL1-β and TNF-α expression/production ([1]; RT-qPCR (5 hours) and TNFα ELISA (24 hours)): not significantly modulating; viral load by RT-qPCR (SARS-COV-2 [2]; female mice treated during the first 2 days, day 4 post-inoculation): decrease in viral load; viral RNA yields in lungs by RT-qPCR (SARS-COV-2 [2]; female mice, 62.5 mg/kg i.p., day 2 post-infection): reduced viral load; expression of transcripts encoding IL-6, TNFα, IL12p40, IFNβ, IFNγ and ISG Mx1, Ifi44, ISG15 in lungs (SARS-COV-2 [2]; female mice, 62.5 mg/kg i.p., day 2 post-infection, RT-qPCR): markedly reduced; reduction of infectious viral load in the lungs vs vehicle (SARS-COV-2 [2]; female mice, 62.5 mg/kg i.p., day 2 post-infection, titration on Vero-81 cells): more than 1.1 log10; expression of transcripts encoding inflammatory markers (SARS-COV-2 [2]; [7]): strongly decreased; lung pathology (histology) (SARS-COV-2 [2]; [7]): only a minimal interstitial inflammation; inflammatory score of lung sections (SARS-COV-2 [2]; female mice, day 4 post-infection, blinded scoring): reduces the inflammatory score; infection-induced drop of Ocln and ZO1 transcript levels (epithelial barrier markers) (SARS-COV-2 [2]; female mice, day 4 post-infection, lungs): significantly reduced; IL-6 and IL-12p40 production in lungs ([3]; ELISA, 4 dpi): Reduced; transcript expression of interferon-stimulated genes Mx1, ISG15 and Cxcl10 ([3]; RT-qPCR): reduced; viral RNA yields by RT-qPCR ([3]; day 2 and 4 post-infection): trend in reduced viral load; infectious viral load in the lungs ([3]; day 2 and day 4 post-infection, titration on MDCK cells): slightly reduced; expression of transcript encoding TNFα in lungs ([3]; day 2 post-infection, RT-qPCR): to a lower extent; expression of transcripts encoding IL-6, IL-12p40, Ccl2, IFN-γ in lungs ([3]; day 2 post-infection, RT-qPCR): reduced; lung pathology (histology, inflammation scoring) ([3]; day 4 post-infection, hematoxylin and eosin): only a minimal interstitial inflammation; IC95 measured in vitro (SARS-CoV-2 [4]): ~10 µM; lung fibrosis (Red Sirius staining) ([5]; 28 days post-infection): tended to develop less fibrosis; body weight ([5]; IAV-infected mice): reduces body weight; production of inflammatory cytokines IL-1β, IL-12p40 and TNF-α (MPI cells): inhibited, in a dose dependent manner; clofoctol concentration in the lungs (62.5 mg/kg i.p. twice daily during two days, 1 h after the fourth administration): 67 µM; plasma concentration relative to lung concentration [8]: seven times lower; time lung concentration remained above this level (61 μM) [8]: ~4 h; clofoctol concentration in the lungs (female C57BL/6 mice, single i.p. dose 62.5 mg/kg, 30 min after injection): up to 61 μM; expression of transcripts encoding IL-6, TNFα, IL-1β, IFN-γ, IL12p40 and CCL2 in lungs [6]: markedly reduced
